Measurements as given in patent publication US20250197420A1, “MACROCYCLIC COMPOUNDS, COMPOSITIONS, AND METHODS OF USING THEREOF” (Sionna Therapeutics Inc., priority 2022, published 2025).

Legend:
[1] = tested on: Primary human bronchial epithelial cells from a ΔF508 homozygous CF donor (CF-HBE cells); experiment: TECC24 recording of CFTR-mediated transepithelial chloride transport, AUC fold over benchmark VX-809 @10 μM; assay type: cell-based; settings: 48 hours incubation, AUC of forskolin-stimulated IEQ
Method: The effects of a test agent on CFTR-mediated transepithelial chloride transport is measured using TECC24 recording analysis. Test agents are solubilized in DMSO. Solubilized test agents are mixed with incubation medium containing DMEM/F12, Ultroser G (0.5%; Crescent Chemical, catalog #67042), Hyclone Fetal Clone II (2%; GE Healthcare, catalog #SH30066.02), bovine brain extract (0.25%; Lonza, catalog #CC-4098), insulin ([…]), IL-13 (10 ng/mL), hydrocortisone (20 nM), transferrin ([…]), triiodothyronine (500 nM), ethanolamine (250 nM), epinephrine (1.5 μM), phosphoethanolamine (250 nM), and retinoic acid (10 nM). Primary human bronchial epithelial cells from a ΔF508 homozygous CF donor (CF-HBE cells; from University of North Carolina Cystic Fibrosis Tissue Procurement Center), grown on Transwell HTS 24-well cell culture inserts (Costar, catalog #3378), are exposed to test agents or controls dissolved in incubation medium. The CF-HBE cells are cultured at 36.5° C. for 48 hours before TECC24 recordings are performed in the presence or absence of test agent, a positive control or vehicle (DMSO).
Following incubation, the transwell cell culture inserts containing the test agent or control-treated CF-HBE cells are loaded onto a TECC24 apparatus (TECC v7 or MTECC v2; EP Design) to record the transepithelial voltage (VT) and resistance (TEER) using 4 AgCl electrodes per well configured in current-clamp mode. The apical and basolateral bath solutions both contain (in mM) 140 NaCl, 5 KCl, 2 CaCl2), 1 MgCl2, 10 Hepes, and 10 glucose (adjusted to pH 7.4 with NaOH). To inhibit basal Na+ absorption, the ENaC inhibitor benzamil (10 μM) is added to the bath. Then, the adenylate cyclase activator, forskolin (10 μM), is added to the bath to activate CFTR. The forskolin-stimulated Cl− transport is halted by addition of CFTR inhibitor-172 (20 μM) to the bath at the end of the experiment to confirm specificity. VT and TEER recordings are digitally acquired at routine intervals using TECC or MTECC software (EP Design). VT and TEER are transformed into equivalent transepithelial Cl− current (IEQ), and the Area Under the Curve (AUC) of the IEQ time course between forskolin and CFTR inhibitor-172 addition is generated using Excel (Microsoft). Efficacy is expressed as the ratio of the test agent AUC divided by vehicle AUC. EC50s based on AUC are generated using the non-linear regression log(agonist) vs. response function in Prism software (Graphpad) with HillSlope fixed=1.
If a test agent increases the AUC of the forskolin-stimulated IEQ relative to VX-809 in CF-HBE cells, and this increase is inhibited by CFTR inhibitor-172, then the test agent is considered a CFTR corrector. TECC assay efficacy is expressed as the ratio of the test agent AUC divided by VX-809 AUC. As set forth in Table 2 below, a TECC value less than 3 is marked “A”; a value between 3 and 6 is marked “B”; a value between 6 and 20 is marked “C”.

[2] = molecular target: T1, Purified recombinant NBD1 (Homo sapiens, UniProt P13569); experiment: Aggregation analysis using differential static light scattering (DSLS): thermal stability of NBD1; assay type: binding; settings: NBD1 0.2 mg/ml; Tagg of compound well minus average Tagg of DMSO control wells
T1 construct: Purified recombinant NBD1 was produced using previously described methods; made in house
T1 sequence (P13569 423-646 limits assumed): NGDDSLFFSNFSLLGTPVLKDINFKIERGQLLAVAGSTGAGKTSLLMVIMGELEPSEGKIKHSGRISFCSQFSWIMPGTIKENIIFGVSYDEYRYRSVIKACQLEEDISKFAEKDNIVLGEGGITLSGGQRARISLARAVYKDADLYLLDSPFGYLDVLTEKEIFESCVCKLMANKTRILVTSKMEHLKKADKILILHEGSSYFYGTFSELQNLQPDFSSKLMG
Method in brief: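 ΔTagg is compound-well aggregation temperature minus the DMSO-control mean, each Tagg being the inflection point of light scattering measured by DSLS during a 1 °C/min ramp up to 70 °C. The protein was purified NBD1 (0.2 mg/ml) in pH 7.6 buffer containing 2 mM ATP, 5 mM MgCl2 and 1% glycerol.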

Compound	TECC (test agent AUC divided by VX-809 AUC) [1]	DSLS (ΔTagg) [2]
CN1CC(C)(C)CCCC(C)(c2cccc(CCC(=O)O)c2)c2cnc([nH]2)-c2cc(ccc2F)Oc2c(F)cc3[nH]ccc3c2CCC1=O (single isomer, unassigned) [Compound 49B, 3-[3-(23,29-Difluoro-6,10,10,12-tetramethyl-13-oxo-25-oxa-3,12,20,31-tetrazapentacyclo-[24.3.1.12,5.016,24.017,21]-hentriaconta-1(30),2,4,16,18,21,23,26,28-nonaen-6-yl)phenyl]propanoic acid]	A (a TECC value less than 3 is marked “A”)	C (a value greater than 10 °C and less than or equal to 25 °C is marked “C”)
CNC(=O)CCc1cccc(C2(C)CCCC(C)(C)CN(C)C(=O)CCc3c(c(F)cc4[nH]ccc34)Oc3ccc(F)c(c3)-c3ncc2[nH]3)c1 (single isomer, unassigned) [Compound 53A, 3-[3-(23,29-difluoro-6,10,10,12-tetramethyl-13-oxo-25-oxa-3,12,20,31-tetrazapentacyclo-[24.3.1.12,5.016,24.017,21]hentriaconta-1(30),2,4,16,18,21,23,26,28-nonaen-6-yl)phenyl]-N-methyl-propanamide]	A (a TECC value less than 3 is marked “A”)	A (an ΔTagg value less than or equal to 5 °C is marked “A”)
CNC(=O)CCc1cccc(C2(C)CCCC(C)(C)CN(C)C(=O)CCc3c(c(F)cc4[nH]ccc34)Oc3ccc(F)c(c3)-c3ncc2[nH]3)c1 (single isomer, unassigned) [Compound 53B, 3-[3-(23,29-difluoro-6,10,10,12-tetramethyl-13-oxo-25-oxa-3,12,20,31-tetrazapentacyclo-[24.3.1.12,5.016,24.017,21]hentriaconta-1(30),2,4,16,18,21,23,26,28-nonaen-6-yl)phenyl]-N-methyl-propanamide]	A (a TECC value less than 3 is marked “A”)	B (a value above 5 °C and less than or equal to 10 °C is marked “B”)
CN1CC(C)(C)CCCC(C)(c2cccc(CCC(=O)NO)c2)c2cnc([nH]2)-c2cc(ccc2F)Oc2c(F)cc3[nH]ccc3c2CCC1=O (single isomer, unassigned) [Compound 54, 3-[3-(23,29-difluoro-6,10,10,12-tetramethyl-13-oxo-25-oxa-3,12,20,31-tetrazapentacyclo-[24.3.1.12,5.016,24.017,21]hentriaconta-1(30),2,4,16,18,21,23,26,28-nonaen-6-yl)phenyl]propanehydroxamic acid]	A (a TECC value less than 3 is marked “A”)	A (an ΔTagg value less than or equal to 5 °C is marked “A”)
CN1CC(C)(C)CCCC(C)(c2cccc(CCC(=O)NO)c2)c2cnc([nH]2)-c2cc(ccc2F)Oc2c(F)cc3[nH]ccc3c2CCC1=O (single isomer, unassigned) [Compound 55, 3-[3-(23,29-difluoro-6,10,10,12-tetramethyl-13-oxo-25-oxa-3,12,20,31-tetrazapentacyclo-[24.3.1.12,5.016,24.017,21]hentriaconta-1(30),2,4,16,18,21,23,26,28-nonaen-6-yl)phenyl]propanehydroxamic acid]	A (a TECC value less than 3 is marked “A”)	B (a value above 5 °C and less than or equal to 10 °C is marked “B”)
COCCONC(=O)CCc1cccc(C2(C)CCCC(C)(C)CN(C)C(=O)CCc3c(c(F)cc4[nH]ccc34)Oc3ccc(F)c(c3)-c3ncc2[nH]3)c1 (single isomer, unassigned) [Compound 56, 3-[3-(23,29-difluoro-6,10,10,12-tetramethyl-13-oxo-25-oxa-3,12,20,31-tetrazapentacyclo[24.3.1.12,5.016,24.017,21]hentriaconta-1(30),2,4,16,18,21,23,26,28-nonaen-6-yl)phenyl]-N-(2-methoxyethoxy)propanamide]	A (a TECC value less than 3 is marked “A”)	A (an ΔTagg value less than or equal to 5 °C is marked “A”)
COCCONC(=O)CCc1cccc(C2(C)CCCC(C)(C)CN(C)C(=O)CCc3c(c(F)cc4[nH]ccc34)Oc3ccc(F)c(c3)-c3ncc2[nH]3)c1 (single isomer, unassigned) [Compound 57, 3-[3-(23,29-difluoro-6,10,10,12-tetramethyl-13-oxo-25-oxa-3,12,20,31-tetrazapentacyclo[24.3.1.12,5.016,24.017,21]hentriaconta-1(30),2,4,16,18,21,23,26,28-nonaen-6-yl)phenyl]-N-(2-methoxyethoxy)propanamide]	B (a value between 3 and 6 is marked “B”)	B (a value above 5 °C and less than or equal to 10 °C is marked “B”)
CN1CC(C)(C)CCCC(C)(c2cccc(CCC(=O)NOCCO)c2)c2cnc([nH]2)-c2cc(ccc2F)Oc2c(F)cc3[nH]ccc3c2CCC1=O (single isomer, unassigned) [Compound 58, 3-[3-(23,29-difluoro-6,10,10,12-tetramethyl-13-oxo-25-oxa-3,12,20,31-tetrazapentacyclo[24.3.1.12,5.016,24.017,21]hentriaconta-1(30),2,4,16,18,21,23,26,28-nonaen-6-yl)phenyl]-N-(2-hydroxyethoxy)propanamide]	A (a TECC value less than 3 is marked “A”)	A (an ΔTagg value less than or equal to 5 °C is marked “A”)
CN1CC(C)(C)CCCC(C)(c2cccc(CCC(=O)NOCCO)c2)c2cnc([nH]2)-c2cc(ccc2F)Oc2c(F)cc3[nH]ccc3c2CCC1=O (single isomer, unassigned) [Compound 59, 3-[3-(23,29-difluoro-6,10,10,12-tetramethyl-13-oxo-25-oxa-3,12,20,31-tetrazapentacyclo[24.3.1.12,5.016,24.017,21]hentriaconta-1(30),2,4,16,18,21,23,26,28-nonaen-6-yl)phenyl]-N-(2-hydroxyethoxy)propanamide]	A (a TECC value less than 3 is marked “A”)	B (a value above 5 °C and less than or equal to 10 °C is marked “B”)
CON(C)C(=O)CCc1cccc(C2(C)CCCC(C)(C)CN(C)C(=O)CCc3c(c(F)cc4[nH]ccc34)Oc3ccc(F)c(c3)-c3ncc2[nH]3)c1 (single isomer, unassigned) [Compound 60A, 3-[3-(23,29-difluoro-6,10,10,12-tetramethyl-13-oxo-25-oxa-3,12,20,31-tetrazapentacyclo-[24.3.1.12,5.016,24.017,21]hentriaconta-1(30),2,4,16,18,21,23,26,28-nonaen-6-yl)phenyl]-N-methoxy-N-methyl-propanamide]	A (a TECC value less than 3 is marked “A”)	A (an ΔTagg value less than or equal to 5 °C is marked “A”)
